Data as given in patent US20090325964A1, “Piperazine Metabotropic Glutamate Receptor 5 (MGLUR5) Negative Allosteric Modulators For Anxiety/Depression” (Wyeth, priority 2008, published 2009).
pIC50, pKi: −log10 of the molar value.

What was measured:
[1] = target: T1, rat mGluR5 receptor (Rattus norvegicus, UniProt P31424); test: [3H]-MPEP displacement binding assay, HEK-293 cell membranes expressing rat mGluR5; settings: [3H]-MPEP displacement, rat mGluR5; read-out: Median Ki
T1 construct: expressed in transfected cells; host or cells: HEK-293
Summary of the method: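 Membranes from HEK-293 cells expressing rat mGluR5 (12-25 μg protein), incubated 60 min at room temperature with 4 nM [3H]-MPEP in 50 mM Tris pH 7.5, then filtered. Nonspecific binding defined with 10 μM MPEP.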

[2] = target: mGluR5 (Rattus norvegicus, UniProt P31424); test: IC50 column under 'Biological Activity' (assay not identified in the shown text; not the binding Ki)
mGluR5, sequence (P31424 21-1203): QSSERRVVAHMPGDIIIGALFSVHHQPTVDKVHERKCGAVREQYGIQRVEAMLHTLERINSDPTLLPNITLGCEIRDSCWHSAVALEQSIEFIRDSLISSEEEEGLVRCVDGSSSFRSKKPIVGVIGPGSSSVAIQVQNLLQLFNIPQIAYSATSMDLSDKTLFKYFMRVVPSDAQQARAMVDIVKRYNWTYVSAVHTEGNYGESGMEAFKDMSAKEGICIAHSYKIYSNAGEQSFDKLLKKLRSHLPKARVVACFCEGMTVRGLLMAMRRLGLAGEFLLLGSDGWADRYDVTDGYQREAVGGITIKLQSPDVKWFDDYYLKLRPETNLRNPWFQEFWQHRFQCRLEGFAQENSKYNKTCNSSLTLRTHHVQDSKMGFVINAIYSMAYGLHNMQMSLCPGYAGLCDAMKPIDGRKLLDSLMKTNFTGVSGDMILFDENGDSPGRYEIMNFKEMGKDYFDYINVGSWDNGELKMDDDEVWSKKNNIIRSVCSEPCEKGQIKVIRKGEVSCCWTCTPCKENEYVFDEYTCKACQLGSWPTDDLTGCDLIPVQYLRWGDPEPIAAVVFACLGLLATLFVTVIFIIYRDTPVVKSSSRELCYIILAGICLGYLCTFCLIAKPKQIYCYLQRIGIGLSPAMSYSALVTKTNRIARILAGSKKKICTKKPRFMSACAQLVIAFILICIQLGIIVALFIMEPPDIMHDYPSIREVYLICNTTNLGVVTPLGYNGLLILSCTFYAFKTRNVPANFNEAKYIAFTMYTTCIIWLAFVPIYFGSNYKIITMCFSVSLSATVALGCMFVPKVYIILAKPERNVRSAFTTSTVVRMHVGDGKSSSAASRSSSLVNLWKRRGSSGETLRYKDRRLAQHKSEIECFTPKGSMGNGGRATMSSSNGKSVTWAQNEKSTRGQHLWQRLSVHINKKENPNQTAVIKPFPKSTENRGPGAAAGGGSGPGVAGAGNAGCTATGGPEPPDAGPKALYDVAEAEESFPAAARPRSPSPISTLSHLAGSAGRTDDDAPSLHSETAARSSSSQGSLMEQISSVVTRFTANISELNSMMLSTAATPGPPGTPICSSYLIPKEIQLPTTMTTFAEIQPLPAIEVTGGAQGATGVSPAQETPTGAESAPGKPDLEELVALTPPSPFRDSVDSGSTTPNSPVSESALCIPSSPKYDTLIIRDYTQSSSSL

T1 sequence (P31424 21-1203): as above

Row | pKi [1] | pIC50 [2] | SMILES
1 | 7.00 | < 6.00 | COc1ccc(C(=O)N2CCN(c3ccccc3C)CC2)cc1C#Cc1ccccn1 [Compound 221, 1-[4-methoxy-3-(pyridin-2-ylethynyl)benzoyl]-4-(2-methylphenyl)piperazine]
2 | 7.13 | < 6.00 | COc1ccc(C(=O)N2CCN(c3ccc(C)cc3)CC2)cc1C#Cc1ccccn1 [Compound 222, 1-[4-methoxy-3-(pyridin-2-ylethynyl)benzoyl]-4-(4-methylphenyl)piperazine]
3 | 8.00 | 6.99 | COc1ccc(C(=O)N2CCN(c3cccc(F)c3)CC2)cc1C#Cc1ccccn1 [Compound 223, 1-(3-fluorophenyl)-4-[4-methoxy-3-(pyridin-2-ylethynyl)benzoyl]piperazine]
4 | 7.29 | < 6.00 | COc1ccc(C(=O)N2CCN(S(=O)(=O)c3ccc(Cl)s3)CC2)cc1C#Cc1ccccn1 [Compound 225, 1-[(5-chloro-2-thienyl)sulfonyl]-4-[4-methoxy-3-(pyridin-2-ylethynyl)benzoyl]piperazine]
5 | 6.56 | < 6.00 | COc1ccc(C(=O)N2C[C@@H]3C[C@@H]2CN3c2ccc(C)cc2)cc1C#Cc1ccccn1 [Compound 226, (1R,4S)-2-[4-methoxy-3-(pyridin-2-ylethynyl)benzoyl]-5-(4-methylphenyl)-2,5-diazabicyclo[2.2.1]heptane]
6 | 7.15 | < 6.00 | COc1ccc(C(=O)N2C[C@@H]3C[C@@H]2CN3c2ccc(F)cc2)cc1C#Cc1ccccn1 [Compound 227, (1S,4R)-2-(4-fluorophenyl)-5-[4-methoxy-3-(pyridin-2-ylethynyl)benzoyl]-2,5-diazabicyclo[2.2.1]heptane]
7 | 7.25 | < 6.00 | COc1ccc(C(=O)N2CCN(c3ccc([N+](=O)[O-])cn3)CC2)cc1C#Cc1ccccn1 [Compound 229, 1-[4-methoxy-3-(pyridin-2-ylethynyl)benzoyl]-4-(5-nitropyridin-2-yl)piperazine]
8 | 7.64 | 6.61 | COc1ccc(C(=O)N2CCN(c3ccc(F)cc3)CC2)cc1C#Cc1ccccn1 [Compound 231, 1-(4-fluorophenyl)-4-[4-methoxy-3-(pyridin-2-ylethynyl)benzoyl]piperazine]
9 | 7.02 | < 6.00 | COc1ccc(C(=O)N2CCN(c3ccc([N+](=O)[O-])cc3)CC2)cc1C#Cc1ccccn1 [Compound 232, 1-[4-methoxy-3-(pyridin-2-ylethynyl)benzoyl]-4-(4-nitrophenyl)piperazine]
10 | 7.18 | < 6.00 | COc1ccc(N2CCN(C(=O)c3ccc(OC)c(C#Cc4ccccn4)c3)CC2)cc1 [Compound 233, 1-(4-methoxyphenyl)-4-[4-methoxy-3-(pyridin-2-ylethynyl)benzoyl]piperazine]
11 | 7.12 | < 6.00 | COc1ccc(C(=O)N2CCN(S(=O)(=O)c3ccc4c(c3)OCCO4)CC2)cc1C#Cc1ccccn1 [Compound 235, 1-(2,3-dihydro-1,4-benzodioxin-6-ylsulfonyl)-4-[4-methoxy-3-(pyridin-2-ylethynyl)benzoyl]piperazine]
12 | 7.11 | < 6.00 | COc1ccc(C(=O)N2CCN(c3ccncc3)CC2)cc1C#Cc1ccccn1 [Compound 236, 1-[4-methoxy-3-(pyridin-2-ylethynyl)benzoyl]-4-pyridin-4-ylpiperazine]
13 | 7.68 | 6.92 | COc1ccc(C(=O)N2CCN(c3ccc(C(C)=O)cc3)CC2)cc1C#Cc1ccccn1 [Compound 237, 1-(4-{4-[4-methoxy-3-(pyridin-2-ylethynyl)benzoyl]piperazin-1-yl}phenyl)ethanone]
14 | 7.82 | 7.09 | COc1cccc(N2CCN(C(=O)c3ccc(OC)c(C#Cc4ccccn4)c3)CC2)c1 [Compound 241, 1-(3-methoxyphenyl)-4-[4-methoxy-3-(pyridin-2-ylethynyl)benzoyl]piperazine]
15 | 7.85 | 6.81 | COc1ccc(C(=O)N2CCN(S(=O)(=O)c3ccc(Cl)cc3)CC2)cc1C#Cc1ccccn1 [Compound 243, 1-[(4-chlorophenyl)sulfonyl]-4-[4-methoxy-3-(pyridin-2-ylethynyl)benzoyl]piperazine]
16 | 7.27 | 6.63 | COc1ccc(C(=O)N2CCN(C(=O)c3ccccc3)CC2)cc1C#Cc1ccccn1 [Compound 244, 1-benzoyl-4-[4-methoxy-3-(pyridin-2-ylethynyl)benzoyl]piperazine]
17 | 6.64 | 6.46 | CCS(=O)(=O)N1CCN(C(=O)c2ccc(OC)c(C#Cc3ccccn3)c2)CC1 [Compound 245, 1-(ethylsulfonyl)-4-[4-methoxy-3-(pyridin-2-ylethynyl)benzoyl]piperazine]
18 | 7.77 | 7.07 | COc1ccc(C(=O)N2CCN(c3nccs3)CC2)cc1C#Cc1ccccn1 [Compound 247, 1-[4-methoxy-3-(pyridin-2-ylethynyl)benzoyl]-4-(1,3-thiazol-2-yl)piperazine]

Row | pKi [1] | pIC50 [2] | SMILES
19 | 7.08 | < 6.00 | COc1ccc(C(=O)N2CCN(C(=O)C3CC3)CC2)cc1C#Cc1ccccn1 [Compound 248, 1-(cyclopropylcarbonyl)-4-[4-methoxy-3-(pyridin-2-ylethynyl)benzoyl]piperazine]
20 | 7.62 | 7.02 | COc1ccc(C(=O)N2CCN(c3ccccc3)CC2C)cc1C#Cc1ccccn1 (stereo not drawn) [Compound 250, 1-[4-methoxy-3-(pyridin-2-ylethynyl)benzoyl]-2-methyl-4-phenylpiperazine]
21 | 8.22 | 7.60 | COc1ccc(C(=O)N2CCN(c3noc4ccccc34)CC2)cc1C#Cc1ccccn1 [Compound 251, 3-{4-[4-methoxy-3-(pyridin-2-ylethynyl)benzoyl]piperazin-1-yl}-1,2-benzisoxazole]
22 | 7.48 | 6.72 | COc1ccc(C(=O)N2CCN(c3ccc(C#N)cn3)CC2)cc1C#Cc1ccccn1 [Compound 252, 6-{4-[4-methoxy-3-(pyridin-2-ylethynyl)benzoyl]piperazin-1-yl}nicotinonitrile]
23 | 7.68 | 6.74 | COc1ccc(C(=O)N2CCN(S(=O)(=O)c3ccc(C)cc3)CC2)cc1C#Cc1ccccn1 [Compound 253, 1-[4-methoxy-3-(pyridin-2-ylethynyl)benzoyl]-4-[(4-methylphenyl)sulfonyl]piperazine]
24 | 8.05 | 6.89 | COc1ccc(C(=O)N2CCN(c3cccc(Cl)n3)CC2)cc1C#Cc1ccccn1 [Compound 255, 1-(6-chloropyridin-2-yl)-4-[4-methoxy-3-(pyridin-2-ylethynyl)benzoyl]piperazine]
25 | 7.42 | 6.96 | COc1ccc(C(=O)N2CCN(c3nc4ccccc4o3)CC2)cc1C#Cc1ccccn1 [Compound 257, 2-{4-[4-methoxy-3-(pyridin-2-ylethynyl)benzoyl]piperazin-1-yl}-1,3-benzoxazole]
26 | 7.39 | 7.02 | COc1ccc(C(=O)N2CCN(C(=O)c3ccco3)CC2)cc1C#Cc1ccccn1 [Compound 258, 1-(2-furoyl)-4-[4-methoxy-3-(pyridin-2-ylethynyl)benzoyl]piperazine]
27 | 7.42 | 6.80 | COc1ccc(C(=O)N2CCN(Cc3ccc4c(c3)OCO4)CC2)cc1C#Cc1ccccn1 [Compound 259, 1-(1,3-benzodioxol-5-ylmethyl)-4-[4-methoxy-3-(pyridin-2-ylethynyl)benzoyl]piperazine]
28 | 7.77 | 6.83 | COc1ccc(C(=O)N2CCN(c3ncc(Br)cn3)CC2)cc1C#Cc1ccccn1 [Compound 262, 5-bromo-2-{4-[4-methoxy-3-(pyridin-2-ylethynyl)benzoyl]piperazin-1-yl}pyrimidine]
29 | 7.27 | < 6.00 | COc1ccc(C(=O)N2CCN(C(=O)c3ccc(OC)c(C#Cc4ccccn4)c3)CC2)cc1 [Compound 265, 1-(4-methoxybenzoyl)-4-[4-methoxy-3-(pyridin-2-ylethynyl)benzoyl]piperazine]
30 | 7.48 | < 6.00 | COc1ccc(C(=O)N2CCN(Cc3ccccc3F)CC2)cc1C#Cc1ccccn1 [Compound 266, 1-(2-fluorobenzyl)-4-[4-methoxy-3-(pyridin-2-ylethynyl)benzoyl]piperazine]
31 | 7.24 | 6.78 | COc1ccc(C(=O)N2CCN(Cc3cccc(F)c3)CC2)cc1C#Cc1ccccn1 [Compound 267, 1-(3-fluorobenzyl)-4-[4-methoxy-3-(pyridin-2-ylethynyl)benzoyl]piperazine]
32 | 7.24 | 6.66 | COc1ccc(C(=O)N2CCN(Cc3ccc(F)cc3)CC2)cc1C#Cc1ccccn1 [Compound 268, 1-(4-fluorobenzyl)-4-[4-methoxy-3-(pyridin-2-ylethynyl)benzoyl]piperazine]
33 | 7.05 | 6.50 | COc1ccc(C(=O)N2CCN(Cc3cccc(Cl)c3)CC2)cc1C#Cc1ccccn1 [Compound 274, 1-(3-chlorobenzyl)-4-[4-methoxy-3-(pyridin-2-ylethynyl)benzoyl]piperazine]
34 | 7.77 | 6.84 | COc1ccc(C(=O)N2CCN(Cc3ccc(Cl)cc3)CC2)cc1C#Cc1ccccn1 [Compound 275, 1-(4-chlorobenzyl)-4-[4-methoxy-3-(pyridin-2-ylethynyl)benzoyl]piperazine]
35 | 7.37 | 6.50 | COc1ccc(C(=O)N2CCN(Cc3ccc(Cl)cc3Cl)CC2)cc1C#Cc1ccccn1 [Compound 280, 1-(2,4-dichlorobenzyl)-4-[4-methoxy-3-(pyridin-2-ylethynyl)benzoyl]piperazine]
36 | 8.15 | 6.49 | COc1ccc(C(=O)N2CCN(Cc3ccc(Br)cc3F)CC2)cc1C#Cc1ccccn1 [Compound 285, 1-(4-bromo-2-fluorobenzyl)-4-[4-methoxy-3-(pyridin-2-ylethynyl)benzoyl]piperazine]
